# Source: patent US5462861A, “Method for improving enzyme activities with noble gases” (American Air Liquide, Chicago Research Center, priority 1993, dated 1995)
# Entries after “also recorded” stand apart in the source; their conditions may differ.
# Key:
# Tyrosinase = experiment: Tyrosinase-L-tyrosine reaction, solution saturated with gas; format: biochemical, Mushroom; details: for effect: optimal reaction conditions, simple saturation of solution with gas, minus = inhibition; for effect on rate and final equilibrium of the tyrosinase-L-tyrosine reaction: various temperatures; for temperature dependence of the effect on tyrosinase: various temperatures (15-35° C.)
# Protocol: (§1) Solution preparation: Optimized w/v solutions are prepared by diluting the enzyme (units/ml) and the substrate (μg/ml) in appropriate buffer (optimized pH and molarity for enzymes). The solutions are used for gas experiments at once to avoid loss of activity. Various enzyme and substrate concentrations and inhibitors may be employed. Physical parameters are varied as required.
# (§2) Preparation of samples: Cuvets are filled with 2 ml of substrate solution by means of a gas-tight syringe. Gas-tight serum vials are filled with enzyme and solvent. Sufficient gas is consecutively bubbled in the cuvets and serum vials, with a 1-hr wait between injections to maximize equilibration of gas. All syringes and dead spaces are purged before filling with the appropriate gas. The amount of gas used has been measured sufficient to saturate the solution required.
# (§3) Spectrophotometric time-drive, reaction rate, and kinetic analyses: cuvets and serum vials are saturated with gas 40 minutes before the run. A gas-filled syringe is used to retrieve 0.5 ml of enzyme solution to avoid air contact. The 0.5 ml syringe injections of enzyme are made simultaneously to effect a common starting time to for the samples. 7 gases (air, O2, N2, Ne, Ar, Kr, Xe) are run at various temperatures each (from 0° to 60° ). Changes in the rate or final equilibrium of the reaction versus ambient air are recorded. Comparison is also made with added oxygen, and with deoxygenation. Some samples are also prepared under pressure.
# 1. Solution preparation: 10% w/v solutions are prepared by diluting the enzyme (units/ml) and the substrate (μg/ml) in Sodium Phosphate buffer (pH 6.85, optimized pH for enzymes). The solutions are stored in refrigerator (0°-5° C.) and used for gas experiments within 2 or 3 days to avoid loss of activity.
# 6. Preparation of run samples: Acrylic cuvets are filled with 2 ml of substrate solution by means of a gas tight syringe. Gastight serum vials are filled with enzyme. 3×10 cc of gas are consecutively bubbled in the cuvets and serum vials, with a […] between injections. This represents a 10× displacement of dead volume while maximizing equilibration of gas. All syringes and dead spaces are purged before filling with the appropriate gas. After the third 10 cc injection, the cuvets and serum vials are left overnight under two 10 cc syringes filled with the appropriate gas in refrigerator at 0°-5° C.
# 8. Spectrophotometric runs: The cuvets and serum vials are filled with 10 cc of gas 40 min before the run. A gas-filled syringe is used to retrieve 0.5 ml of enzyme solution to avoid air contact. The 0.5 ml syringe injections of enzyme are made simultaneously to effect a common starting time t0 for the samples. Seven gases (air, O2, N2, Ne, Ar, Kr, Xe) are run at five temperatures each (15° C., 20° C., 25° C., 30° C., 35° C.). Changes in the rate or final equilibrium of the reaction versus ambient air are recorded.
# The optimal conditions are [E]/[S] (100 μg/ml)/(100 μg/ml), the changes in absorbance being observed at 305 nm.
# 3×10 cc of gas are bubbled in the silicone-sealed cuvets and serum vials (T-3754, T-7755), with an interval of 20 min (at 0°-5°C.) between each gas injection.
# a. The silicone-sealed cuvets are removed from the refrigerator 40 min before the experimental run, filled with 10 cc of gas and left at room temperature (26° C.) under two 10 cc syringes.
# The 0.5 ml syringe injections of enzyme are made simultaneously to effect a common starting time t0 for the samples.
# 200 points, 18 s intervals 1 hr run
# α-D-glucosidase = α-D-glucosidase activity under gas; format: biochemical; details: for effect on α-glucosidase activity: 60° C., FIG. 43; for effect on α-D-glucosidase: FIG. 31
# Protocol: Solution preparation: Optimized w/v solutions are prepared by diluting the enzyme (units/ml) and the substrate (μg/ml) in appropriate buffer (optimized pH and molarity for enzymes). The solutions are used for gas experiments at once to avoid loss of activity. Various enzyme and substrate concentrations and inhibitors may be employed. Physical parameters are varied as required. […] Gas-tight serum vials are filled with enzyme and solvent. Sufficient gas is consecutively bubbled in the cuvets and serum vials, with a 1-hr wait between injections to maximize equilibration of gas. All syringes and dead spaces are purged before filling with the appropriate gas. The amount of gas used has been measured sufficient to saturate the solution required. Spectrophotometric time-drive, reaction rate, and kinetic analyses: cuvets and serum vials are saturated with gas 40 minutes before the run. A gas-filled syringe is used to retrieve 0.5 ml of enzyme solution to avoid air contact. […] Changes in the rate or final equilibrium of the reaction versus ambient air are recorded. Comparison is also made with added oxygen, and with deoxygenation. Some samples are also prepared under pressure.
# [1] = target: Triosephosphate isomerase (Homo sapiens, UniProt P60174); experiment: Triosephosphate isomerase activity under gas; format: biochemical
# Protocol: as §1, §2, §3
# (§4) In a complete experiment, an enzyme at optimal pH and buffering salt concentration is reacted with 5 substrate concentrations in solution with noble gas at 1 atm. […] Controls are also run after evacuation of solution by vacuum. The reaction is monitored colorimetrically in a scanning spectrophotometer in real time, and the signals are treated mathematically to obtain rate and yield differences. Sample numbers are constant and sufficient to ensure significance of results. All parameters are independently controlled and measured, and more complex experiments are occasionally carried out.
# citrate synthetase = target: T1, citrate synthetase (Homo sapiens, UniProt O75390); experiment: Citrate synthetase complex reaction under gas; format: biochemical; details: for effect on citrate synthase: FIG. 33
# T1 sequence (O75390 28-466): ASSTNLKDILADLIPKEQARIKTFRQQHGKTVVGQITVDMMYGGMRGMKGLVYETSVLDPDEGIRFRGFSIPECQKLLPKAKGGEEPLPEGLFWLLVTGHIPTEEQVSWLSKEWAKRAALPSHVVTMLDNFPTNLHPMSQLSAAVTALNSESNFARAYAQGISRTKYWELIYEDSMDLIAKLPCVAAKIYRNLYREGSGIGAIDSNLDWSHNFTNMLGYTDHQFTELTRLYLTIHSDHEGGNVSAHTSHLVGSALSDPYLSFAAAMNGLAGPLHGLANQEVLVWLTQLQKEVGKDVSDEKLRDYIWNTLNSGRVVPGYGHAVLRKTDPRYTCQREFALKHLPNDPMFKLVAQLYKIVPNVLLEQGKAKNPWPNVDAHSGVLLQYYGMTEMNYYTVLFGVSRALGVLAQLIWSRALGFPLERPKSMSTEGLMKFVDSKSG
# Protocol: as §1, §2, §3, §4
# Beta-D-glucosidase = Beta-D-glucosidase activity under gas; format: biochemical; details: plus = enhancement
# Protocol: as §1, §2, §3, §4
# Acetyl S-CoA synthetase = Acetyl S-CoA synthetase activity under gas (coupled sequence or isolated reaction); format: biochemical; details: for Maximum observed enhancement / maximum observed inhibition: depending upon temperature
# Protocol: as §1, §2, §3
# Maximum observed enhancement vs maximum observed inhibition (depending upon temperature):
# In a coupled complex reaction sequence including hydrolytic enzymes: […]
# [2] = coupled complex reaction sequence including hydrolytic enzymes
# Triosephosphate isomerase, sequence (P60174 2-249 limits assumed, species assumed): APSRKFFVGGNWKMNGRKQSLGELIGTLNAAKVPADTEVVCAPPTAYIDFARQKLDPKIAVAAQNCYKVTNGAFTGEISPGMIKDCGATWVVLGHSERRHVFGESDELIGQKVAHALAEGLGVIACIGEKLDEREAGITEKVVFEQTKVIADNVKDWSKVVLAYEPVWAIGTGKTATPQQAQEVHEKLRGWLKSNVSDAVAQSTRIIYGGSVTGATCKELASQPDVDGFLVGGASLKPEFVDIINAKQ
SMILES,effect on tyrosinase-L-tyrosine reaction (Tyrosinase; 15° C.),effect on tyrosinase-L-tyrosine reaction (Tyrosinase; 20° C.),effect on tyrosinase-L-tyrosine reaction (Tyrosinase; 25° C.),effect (Tyrosinase; 25° C.) [%],effect on tyrosinase-L-tyrosine reaction (Tyrosinase; 30° C.),effect on rate and final equilibrium of the tyrosinase-L-tyrosine reaction (Tyrosinase),effect on α-glucosidase activity (α-D-glucosidase),effect on α-D-glucosidase (α-D-glucosidase),"effect ([1]; 10° C., plus = enhancement)",effect on citrate synthetase complex reaction (citrate synthetase; 10° C.),effect on citrate synthetase complex reaction (citrate synthetase; 25° C.),effect on citrate synthetase complex reaction (citrate synthetase; 35° C.),effect on citrate synthase (citrate synthetase),effect (Beta-D-glucosidase),Maximum observed enhancement (Acetyl S-CoA synthetase; [2]),maximum observed inhibition (Acetyl S-CoA synthetase; [2]),Maximum observed enhancement (Acetyl S-CoA synthetase; isolated reaction),maximum observed inhibition (Acetyl S-CoA synthetase; isolated reaction) [%],temperature dependence of the effect on tyrosinase (Tyrosinase),other results
"[Ar] [Ar, argon]",slightly inhibits equilibrium,effective inhibitors; also recorded: strong inhibition; also recorded: dramatically inhibit; also recorded: better inhibition by argon at 20 °C than neon; also recorded: inhibiting effects,inhibit at a lesser level than the other noble gases; also recorded: less inhibition at 25 °C than neon; also recorded: inhibitory effect,-60,inhibitory effect,inhibition; also recorded: surprisingly active at low temperatures,enhanced; also recorded: potent enhancer,enhancement,+8%,+25,-10,-15,inhibition,+16%,+67.7%,+34.6%,+75.4%,-27.6,,"effect ([1]; 25° C., inhibition): -37%"
"N#N [N2, nitrogen, reference compound]",,,inhibit at a lesser level than the other noble gases,,,effective in inhibiting tyrosinase activity; also recorded: inhibition,enhanced,enhancement,,-6,-25,-17,,,+31.2%,-39.5%,+35.7%,-118.7,transitional maxima is observed after 20 °C,"effect on tyrosinase-L-tyrosine reaction (Tyrosinase; 20° C., listed as Nitrogen): inhibits the reaction fairly well; effect on tyrosinase-L-tyrosine reaction (Tyrosinase; 20° C., listed as nitrogen): lesser inhibitory effect; effect on acetyl S-CoA synthetase compared with noble gases (Acetyl S-CoA synthetase): much lesser effect than noble gases except at superoptimal temperatures"
"[Kr] [Kr, krypton]",strong effects; also recorded: large inhibitory effect,,inhibitory effect,-73,inhibitory effect,inhibition,inhibited,,+12%,+37,+6,+32,enhancement,+14%,+16.1%,-34.6%,+5.0%,-52.6,direct inverse (negative) relationship; also recorded: activity transition occuring between 20 °C and 25 °C,"effect on tyrosinase-L-tyrosine reaction (Tyrosinase; 20° C., listed as Krypton): lesser inhibitory effect; effect on tyrosinase-L-tyrosine reaction (Tyrosinase; 20° C., listed as krypton): effective inhibitors; also recorded: almost of equal effect; also recorded: lesser effect; also recorded: inhibiting effects; effect on S-acetyl CoA synthetase (Acetyl S-CoA synthetase; 25° C., FIG. 36): enhancement"
"[Ne] [Ne, neon]",strong effects; also recorded: large inhibitory effect,effective inhibitors; also recorded: dramatically inhibit; also recorded: inhibiting effects,inhibitory effect,-46.7,inhibitory effect,,,enhancement,+4%,+11,+9,-14,,,+2.3%,-21.9%,,,activity transition occuring between 20 °C and 25 °C; also recorded: positively temperature dependent,
